The results in this text go back to ChEMBL document CHEMBL1201862, “PubChem BioAssay data set” (2004).

Holding throughout (test): inhibition of tumour cell growth, NCI panel, 48 h
The test system of assay [1] is HCT-116.
Assay [2] deals with A549.
In assay [3] the test system is SF-268.
Assay [4] relates to NCI-H23.
Assay [5] relates to NCI-H522.
For assay [6], the system named is HL-60.
Assay [7] relates to Hs-578T.
In assay [8] the test system is MDA-MB-435.
Assay [9] relates to ACHN.
The test system of assay [10] is NCI/ADR-RES.
The test system of assay [11] is UACC-62.
Assay [12] concerns K562.
Assay [13] concerns MCF7.
Assay [14] concerns SNB-75.
The subject of assay [15] is SNB-19.
The subject of assay [16] is SF-295.
For assay [17], the system named is OVCAR-5.
Assay [18] has as its system HOP-62.
Assay [19] relates to BT-549.
The subject of assay [20] is MOLT-4.

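Following 48 hours of exposure in 96-well plates, responses at five concentrations were used to interpolate endpoints linearly. Here, GI50 denotes the concentration required for 50% inhibition of growth.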 Calls of active or inactive are those of the source. Cut-off read from the data, not from the text of the source: active = GI50 up to about 1.1 µM and inactive = higher.

On to `O=c1[nH]nc(Cc2ccccc2)n1/N=C/c1ccc([N+](=O)[O-])o1`, for which the GI50 in assay [1] is 2.06 µM (inactive); in assay [2], 4.1 µM (inactive); in [3] it was 2.59 µM (inactive); in [4], 3.57 µM (inactive); in assay [5], 1.39 µM (inactive); in [6], 2.95 µM (inactive). In addition, the GI50 in [7] was 1 µM (active); in assay [8], 1.57 µM (inactive); in assay [9], 3.4 µM (inactive); in assay [10], 2.75 µM (inactive); in assay [11], 1.75 µM (inactive); in [12], 4.09 µM (inactive). The GI50 was 1.86 µM (inactive) in assay [13]; 3.3 µM (inactive) in assay [14]; 4.83 µM (inactive) in assay [15]; 7.62 µM (inactive) in assay [16]; 6.68 µM (inactive) in assay [17]; 3.08 µM (inactive) in assay [18]. Also, the GI50 in assay [19] was 0.308 µM (active); in [20], 2.42 µM (inactive).
For `Cc1ccc(C2=CC(=O)OC(C[P+](c3ccccc3)(c3ccccc3)c3ccccc3)(c3ccccc3)O2)cc1` (stereo not given), the GI50 was 14.5 µM (inactive) in assay [1]; 15.8 µM (inactive) in [2]; 18.5 µM (inactive) in [3]; 13.6 µM (inactive) in assay [4]; 12 µM (inactive) in assay [5]; 20.1 µM (inactive) in [6]. The GI50 in assay [7] is 18.2 µM (inactive); in assay [8] it was 16.2 µM (inactive); in assay [9], 21.3 µM (inactive); in assay [10], 19 µM (inactive); in assay [11] it was 14.8 µM (inactive); in [12] it was 23.3 µM (inactive). For the same compound, the GI50 was 21.1 µM (inactive) in assay [13]; 21.3 µM (inactive) in assay [14]; 17 µM (inactive) in assay [15]; 26.9 µM (inactive) in [16]; 23.2 µM (inactive) in assay [17]; 19.5 µM (inactive) in assay [18]. Also, the GI50 is 26.7 µM (inactive) in assay [19] and 21.3 µM (inactive) in assay [20].
